Laboratory results as given in ChEMBL document CHEMBL3864183, “Development of ML390: A Human DHODH Inhibitor That Induces Differentiation in Acute Myeloid Leukemia” (ACS Med Chem Lett, 2016).
In brackets after ≈: the same amount, converted by molar mass.

Assays:
THP-1 = assay: Induction of human THP1 cell differentiation after 4 days by flow cytometry; format: functional, cell-based; conditions: THP-1, 96 h
U-937 = assay: Induction of human U937 cell differentiation after 4 days by flow cytometry; format: functional, cell-based; conditions: U-937, 96 h
[1] = Induction of bone marrow cell differentiation isolated from ER-HOXA9 fusion protein expressed mouse harboring GFP-lysozyme assessed as upregulation of CD11b/MAC1 after 4 days by flow cytometry; format: functional, cell-based; conditions: 96 h
[2] = target: Dihydroorotate dehydrogenase (quinone), mitochondrial (Homo sapiens, UniProt Q02127); assay: Inhibition of human recombinant DHODH
[3] = Protein binding in mouse plasma; format: ADME, cell-free; conditions: read-out: PPB
[4] = Protein binding in human plasma; format: ADME, cell-free; conditions: read-out: PPB
[5] = Stability of the compound in human plasma for 5 hrs; format: ADME, cell-free
[6] = Stability of the compound in PBS for 24 hrs; format: physicochemical; conditions: buffer
[7] = Solubility of the compound in PBS at pH 7.4; format: physicochemical

Sequence of Dihydroorotate dehydrogenase (quinone), mitochondrial (Q02127 whole entry): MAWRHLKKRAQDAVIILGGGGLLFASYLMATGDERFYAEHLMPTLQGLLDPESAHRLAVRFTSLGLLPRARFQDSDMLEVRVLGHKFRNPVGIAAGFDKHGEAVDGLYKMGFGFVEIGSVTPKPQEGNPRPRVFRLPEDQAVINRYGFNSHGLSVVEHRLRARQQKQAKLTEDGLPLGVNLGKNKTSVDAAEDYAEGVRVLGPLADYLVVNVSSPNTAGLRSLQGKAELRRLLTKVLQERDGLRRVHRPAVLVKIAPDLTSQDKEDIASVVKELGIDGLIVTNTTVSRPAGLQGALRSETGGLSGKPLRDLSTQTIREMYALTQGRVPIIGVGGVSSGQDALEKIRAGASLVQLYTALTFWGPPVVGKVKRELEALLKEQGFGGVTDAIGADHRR

| SMILES | EC50 (THP-1) [µM] | EC50 (U-937) [µM] | EC50 [1] [µM] | IC50 [2] [µM] | also measured |
| --- | --- | --- | --- | --- | --- |
| O=C(CNC(=O)c1ccc(Cl)c(Cl)c1)N[C@@H]1CCCc2ccccc21 | – | – | – | > 20 | – |
| O=C(CCCNC(=O)c1ccc(Cl)c(Cl)c1)N[C@@H]1CCCc2ccccc21 | – | – | – | > 20 | – |
| O=C(CCCNC(=O)c1ccc(Cl)cc1)N[C@@H]1CCCc2ccccc21 | – | – | – | > 20 | – |
| O=C(CCNC(=O)c1ccccc1)N[C@@H]1CCCc2ccccc21 | – | – | – | 12.4 | – |
| O=C(CNC(=O)c1ccc(C(F)(F)F)cc1)N[C@@H]1CCCc2ccccc21 | – | – | – | > 20 | – |
| O=C(O)c1cccnc1Nc1ccccc1 | > 20 | > 20 | > 20 | 17.4 | – |
| O=C(CCCNC(=O)c1ccc(OC(F)(F)F)cc1)N[C@@H]1CCCc2ccccc21 | – | – | – | > 20 | – |
| O=C(CNC(=O)c1ccc(Cl)cc1)N[C@@H]1CCCc2ccccc21 | – | – | – | > 20 | – |
| O=C(O)c1ccc(Cl)cc1Nc1ccccc1 | > 20 | > 20 | > 20 | > 20 | – |
| O=C(CNC(=O)c1ccc(OC(F)(F)F)cc1)N[C@@H]1CCCc2ccccc21 | – | – | – | > 20 | – |
| O=C(CCCNC(=O)c1ccc(C(F)(F)F)cc1)N[C@@H]1CCCc2ccccc21 | – | – | – | > 20 | – |
| Cc1c(-c2ccc(-c3ccccc3F)cc2)nc2ccc(F)cc2c1C(=O)O [BREQUINAR] | 0.094 | 0.044 | 0.51 | – | – |
| Cc1c(Cl)cccc1Nc1ncccc1C(=O)O [CLONIXIN] | > 20 | > 20 | > 20 | 13 | – |
| O=C(O)c1cccnc1Nc1cccc(C(F)(F)F)c1 [NIFLUMIC ACID] | > 20 | > 20 | > 20 | 17 | – |

Further lines, with some results ahead:

| EC50 (THP-1) [µM] | EC50 (U-937) [µM] | EC50 [1] [µM] | IC50 [2] [µM] | SMILES | also measured |
| --- | --- | --- | --- | --- | --- |
| 10.7 | 6.1 | 3 | 0.4 | O=C(O)c1cccnc1Nc1ccc(Cl)cc1 | – |
| > 20 | > 20 | > 20 | 10 | COc1ccc(Nc2ccccc2C(=O)O)cc1 | – |
| > 20 | 17 | 10 | 0.42 | O=C(O)c1ccccc1Nc1ccc(Cl)cc1 | – |
| – | – | – | 8.9 | N#Cc1ccc(C(=O)NCCC(=O)N[C@@H]2CCCc3ccccc32)cc1 | – |
| 2.5 | 2.7 | 3.6 | 0.91 | O=C(CCNC(=O)c1ccc(C(F)(F)F)cc1)N[C@@H]1CCCc2ccccc21 | – |
| 6.5 | 8.8 | 1.8 | 0.56 | O=C(CCNC(=O)c1ccc(OC(F)(F)F)cc1)N[C@@H]1CCCc2ccccc21 | fraction unbound [3]: 0.01; fraction unbound [4]: 0.01; Stability [5]: Stable; Stability [6]: Stable; solubility [7]: 2.5 µM (≈ 1.02 µg/mL) |
| 2.7 | 4.2 | 8.1 | 1.9 | Cc1ccc(C(=O)NCCC(=O)N[C@@H]2CCCc3ccccc32)cc1 | – |
| – | – | – | 9.5 | O=C(CCNC(=O)c1ccc(F)cc1)N[C@@H]1CCCc2ccccc21 | – |
| 6.5 | 8.8 | 7.9 | 7.4 | O=C(CCNC(=O)c1cccc(Cl)c1)N[C@@H]1CCCc2ccccc21 | – |
| 3.2 | 5.6 | 4.5 | 1.3 | O=C(CCNC(=O)c1ccc(Cl)cc1)N[C@@H]1CCCc2ccccc21 | – |
| 5.1 | 12 | 5 | 3.6 | COc1ccc(C(=O)NCCC(=O)N[C@@H]2CCCc3ccccc32)cc1 | – |
| 4.3 | 4.4 | 4.7 | 2.7 | O=C(CCNC(=O)c1ccc2c(c1)OC(F)(F)O2)N[C@@H]1CCCc2ccccc21 | – |
| 2.5 | 2.4 | 3.2 | 1.5 | O=C(CCNC(=O)c1ccc(Cl)c(Cl)c1)N[C@@H]1CCCc2ccccc21 | – |
| 7.7 | 5.6 | 3.7 | 0.5 | O=C(O)c1cccnc1Nc1ccc(OC(F)(F)F)cc1 | – |
| > 20 | > 20 | > 20 | 2.8 | O=C(O)c1cccnc1Nc1ccc(F)cc1 | – |
| > 20 | > 20 | 16 | 8 | Cc1c(Nc2ncccc2C(=O)O)cccc1C(F)(F)F [FLUNIXIN] | – |
